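96-well plates; 48 h exposure; 5 concentrations. Endpoints by linear interpolation between flanking doses. Not reached: highest tested concentration assigned. GI50: concentration for 50% inhibition of growth. The concentration for full growth arrest is given as TGI.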
Legend:
Assay in all cases: NCI anticancer screen, dose series, 48 h
786-0 renal = test system: 786-0 renal
A498 renal = test system: A498 renal
A549 NSCLC = test system: A549 NSCLC
ACHN renal = test system: ACHN renal
BT-549 breast = test system: BT-549 breast
CAKI-1 renal = test system: CAKI-1 renal
CCRF-CEM leukemia = test system: CCRF-CEM leukemia
COLO 205 colon = test system: COLO 205 colon
DU-145 prostate = test system: DU-145 prostate
EKVX NSCLC = test system: EKVX NSCLC
HCC-2998 colon = test system: HCC-2998 colon
HCT-116 colon = test system: HCT-116 colon
HCT-15 colon = test system: HCT-15 colon
HL-60(TB) leukemia = test system: HL-60(TB) leukemia
HOP-62 NSCLC = test system: HOP-62 NSCLC
HOP-92 NSCLC = test system: HOP-92 NSCLC
HS 578T breast = test system: HS 578T breast
HT29 colon = test system: HT29 colon
IGROV1 ovarian = test system: IGROV1 ovarian
K-562 leukemia = test system: K-562 leukemia
KM12 colon = test system: KM12 colon
LOX IMVI melanoma = test system: LOX IMVI melanoma
M14 melanoma = test system: M14 melanoma
MALME-3M melanoma = test system: MALME-3M melanoma
MCF7 breast = test system: MCF7 breast
MDA-MB-231 breast = test system: MDA-MB-231 breast
MDA-MB-435 = test system: MDA-MB-435
MOLT-4 leukemia = test system: MOLT-4 leukemia
NCI-H226 lung = test system: NCI-H226 lung
NCI-H23 lung = test system: NCI-H23 lung
NCI-H460 lung = test system: NCI-H460 lung
NCI-H522 lung = test system: NCI-H522 lung
NCI/ADR-RES ovarian = test system: NCI/ADR-RES ovarian
OVCAR-3 ovarian = test system: OVCAR-3 ovarian
OVCAR-4 ovarian = test system: OVCAR-4 ovarian
OVCAR-5 ovarian = test system: OVCAR-5 ovarian
OVCAR-8 ovarian = test system: OVCAR-8 ovarian
PC-3 prostate = test system: PC-3 prostate
RPMI-8226 leukemia = test system: RPMI-8226 leukemia
SF-268 CNS = test system: SF-268 CNS
SF-295 CNS = test system: SF-295 CNS
SF-539 CNS = test system: SF-539 CNS
SK-MEL-2 melanoma = test system: SK-MEL-2 melanoma
SK-MEL-28 melanoma = test system: SK-MEL-28 melanoma
SK-MEL-5 melanoma = test system: SK-MEL-5 melanoma
SK-OV-3 ovarian = test system: SK-OV-3 ovarian
SN12C renal = test system: SN12C renal
SNB-19 CNS = test system: SNB-19 CNS
SNB-75 CNS = test system: SNB-75 CNS
SR leukemia = test system: SR leukemia
SW-620 colon = test system: SW-620 colon
T-47D breast = test system: T-47D breast
TK-10 renal = test system: TK-10 renal
U251 CNS = test system: U251 CNS
UACC-257 melanoma = test system: UACC-257 melanoma
UACC-62 melanoma = test system: UACC-62 melanoma
UO-31 renal = test system: UO-31 renal

C[C@@H](N)COc1ccc(-c2cnc3ccc(N[C@H](C)c4cccc(F)c4)nn23)cc1 was tested. Which GI50 (786-0 renal) did it give?
The GI50 was 1330 nM.

What about the TGI (786-0 renal) of the same compound?
The TGI was 2740 nM.

What about the GI50 (A498 renal) of the same compound?
The GI50 was 1520 nM.

And the TGI (A498 renal)?
The TGI was 5580 nM.

And the GI50 (A549 NSCLC)?
The GI50 was 1530 nM.

What about the TGI (A549 NSCLC) of the same compound?
Its TGI is 3820 nM.

What about the GI50 (ACHN renal) of the same compound?
The GI50 was 2150 nM.

And the TGI (ACHN renal)?
The TGI was 6350 nM.

And the GI50 (BT-549 breast)?
Its GI50 is 1680 nM.

What about the TGI (BT-549 breast) of the same compound?
Its TGI is 3330 nM.

And the GI50 (CAKI-1 renal)?
The GI50 was 2870 nM.

What about the TGI (CAKI-1 renal) of the same compound?
The TGI was 11000 nM.

And the GI50 (CCRF-CEM leukemia)?
Its GI50 is 2680 nM.

What about the TGI (CCRF-CEM leukemia) of the same compound?
Its TGI is 7880 nM.

And the GI50 (COLO 205 colon)?
Its GI50 is 1100 nM.

What about the TGI (COLO 205 colon) of the same compound?
The TGI was 2960 nM.

What about the GI50 (DU-145 prostate) of the same compound?
The GI50 was 3010 nM.

What about the TGI (DU-145 prostate) of the same compound?
The TGI was 11400 nM.

What about the GI50 (EKVX NSCLC) of the same compound?
The GI50 was 2710 nM.

What about the TGI (EKVX NSCLC) of the same compound?
The TGI was 12600 nM.

What about the GI50 (HCC-2998 colon) of the same compound?
Its GI50 is 2010 nM.

What about the TGI (HCC-2998 colon) of the same compound?
Its TGI is 4970 nM.

What about the GI50 (HCT-116 colon) of the same compound?
The GI50 was 1460 nM.

What about the TGI (HCT-116 colon) of the same compound?
Its TGI is 3070 nM.

What about the GI50 (HCT-15 colon) of the same compound?
The GI50 was 2320 nM.

And the TGI (HCT-15 colon)?
Its TGI is 10100 nM.

And the GI50 (HL-60(TB) leukemia)?
The GI50 was 1810 nM.

And the TGI (HL-60(TB) leukemia)?
The TGI was 3740 nM.

What about the GI50 (HOP-62 NSCLC) of the same compound?
The GI50 was 2290 nM.

What about the TGI (HOP-62 NSCLC) of the same compound?
Its TGI is 11900 nM.

And the GI50 (HOP-92 NSCLC)?
The GI50 was 338 nM.

And the TGI (HOP-92 NSCLC)?
Its TGI is 1890 nM.

And the GI50 (HS 578T breast)?
The GI50 was 1610 nM.

And the TGI (HS 578T breast)?
The TGI was 3820 nM.

And the GI50 (HT29 colon)?
The GI50 was 1400 nM.

What about the TGI (HT29 colon) of the same compound?
The TGI was 3820 nM.

What about the GI50 (IGROV1 ovarian) of the same compound?
Its GI50 is 2180 nM.

What about the TGI (IGROV1 ovarian) of the same compound?
The TGI was 6230 nM.

What about the GI50 (K-562 leukemia) of the same compound?
The GI50 was 1950 nM.

What about the TGI (K-562 leukemia) of the same compound?
Its TGI is 6960 nM.

What about the TGI (KM12 colon) of the same compound?
Its TGI is 1500 nM.

What about the GI50 (LOX IMVI melanoma) of the same compound?
Its GI50 is 1420 nM.

What about the TGI (LOX IMVI melanoma) of the same compound?
The TGI was 2720 nM.

What about the GI50 (M14 melanoma) of the same compound?
The GI50 was 1490 nM.

And the TGI (M14 melanoma)?
Its TGI is 3000 nM.

And the GI50 (MALME-3M melanoma)?
Its GI50 is 1330 nM.

And the TGI (MALME-3M melanoma)?
The TGI was 2620 nM.

And the GI50 (MCF7 breast)?
The GI50 was 1240 nM.

And the TGI (MCF7 breast)?
The TGI was 2690 nM.

What about the GI50 (MDA-MB-231 breast) of the same compound?
The GI50 was 1480 nM.

What about the TGI (MDA-MB-231 breast) of the same compound?
The TGI was 3190 nM.

And the GI50 (MDA-MB-435)?
The GI50 was 1470 nM.

What about the TGI (MDA-MB-435) of the same compound?
The TGI was 3070 nM.

What about the GI50 (MOLT-4 leukemia) of the same compound?
The GI50 was 2000 nM.

What about the TGI (MOLT-4 leukemia) of the same compound?
The TGI was 6440 nM.

And the GI50 (NCI-H226 lung)?
Its GI50 is 1620 nM.

What about the TGI (NCI-H226 lung) of the same compound?
Its TGI is 7310 nM.

What about the GI50 (NCI-H23 lung) of the same compound?
The GI50 was 2960 nM.

What about the TGI (NCI-H23 lung) of the same compound?
The TGI was 13100 nM.

What about the GI50 (NCI-H460 lung) of the same compound?
The GI50 was 1750 nM.

And the TGI (NCI-H460 lung)?
The TGI was 3880 nM.

What about the GI50 (NCI-H522 lung) of the same compound?
The GI50 was 1420 nM.

And the TGI (NCI-H522 lung)?
Its TGI is 3170 nM.

What about the GI50 (NCI/ADR-RES ovarian) of the same compound?
The GI50 was 2430 nM.

And the TGI (NCI/ADR-RES ovarian)?
Its TGI is 7120 nM.

And the GI50 (OVCAR-3 ovarian)?
The GI50 was 2120 nM.

What about the TGI (OVCAR-3 ovarian) of the same compound?
The TGI was 4660 nM.

And the GI50 (OVCAR-4 ovarian)?
The GI50 was 2490 nM.

And the TGI (OVCAR-4 ovarian)?
The TGI was 11900 nM.

What about the GI50 (OVCAR-5 ovarian) of the same compound?
The GI50 was 1380 nM.

And the TGI (OVCAR-5 ovarian)?
Its TGI is 4540 nM.

And the GI50 (OVCAR-8 ovarian)?
Its GI50 is 1840 nM.

And the TGI (OVCAR-8 ovarian)?
Its TGI is 4300 nM.

And the GI50 (PC-3 prostate)?
The GI50 was 1620 nM.

What about the TGI (PC-3 prostate) of the same compound?
Its TGI is 9390 nM.

And the GI50 (RPMI-8226 leukemia)?
The GI50 was 1810 nM.

And the TGI (RPMI-8226 leukemia)?
The TGI was 5300 nM.

And the GI50 (SF-268 CNS)?
The GI50 was 1850 nM.

And the TGI (SF-268 CNS)?
The TGI was 6380 nM.

And the GI50 (SF-295 CNS)?
Its GI50 is 1800 nM.

What about the TGI (SF-295 CNS) of the same compound?
The TGI was 4010 nM.

What about the GI50 (SF-539 CNS) of the same compound?
The GI50 was 1520 nM.

What about the TGI (SF-539 CNS) of the same compound?
The TGI was 2860 nM.

What about the GI50 (SK-MEL-2 melanoma) of the same compound?
The GI50 was 1990 nM.

What about the TGI (SK-MEL-2 melanoma) of the same compound?
The TGI was 4480 nM.

And the GI50 (SK-MEL-28 melanoma)?
The GI50 was 1640 nM.

And the TGI (SK-MEL-28 melanoma)?
The TGI was 3070 nM.

And the GI50 (SK-MEL-5 melanoma)?
The GI50 was 1630 nM.

What about the TGI (SK-MEL-5 melanoma) of the same compound?
Its TGI is 3030 nM.

What about the GI50 (SK-OV-3 ovarian) of the same compound?
Its GI50 is 5050 nM.

And the TGI (SK-OV-3 ovarian)?
Its TGI is 16900 nM.

What about the GI50 (SN12C renal) of the same compound?
The GI50 was 2020 nM.

And the TGI (SN12C renal)?
The TGI was 10400 nM.

And the GI50 (SNB-19 CNS)?
The GI50 was 3000 nM.

And the TGI (SNB-19 CNS)?
The TGI was 11600 nM.

What about the GI50 (SNB-75 CNS) of the same compound?
Its GI50 is 5150 nM.

What about the TGI (SNB-75 CNS) of the same compound?
The TGI was 20600 nM.

And the GI50 (SR leukemia)?
Its GI50 is 71.5 nM.

What about the TGI (SR leukemia) of the same compound?
Its TGI is 1800 nM.

What about the GI50 (SW-620 colon) of the same compound?
Its GI50 is 1550 nM.

And the TGI (SW-620 colon)?
Its TGI is 3440 nM.

What about the GI50 (T-47D breast) of the same compound?
The GI50 was 1500 nM.

And the TGI (T-47D breast)?
The TGI was 3350 nM.

And the GI50 (TK-10 renal)?
The GI50 was 1750 nM.

What about the TGI (TK-10 renal) of the same compound?
The TGI was 8220 nM.

And the GI50 (U251 CNS)?
Its GI50 is 1590 nM.

What about the TGI (U251 CNS) of the same compound?
Its TGI is 4180 nM.

What about the GI50 (UACC-257 melanoma) of the same compound?
The GI50 was 1620 nM.

What about the TGI (UACC-257 melanoma) of the same compound?
Its TGI is 3110 nM.

And the GI50 (UACC-62 melanoma)?
Its GI50 is 1970 nM.

What about the TGI (UACC-62 melanoma) of the same compound?
The TGI was 4740 nM.

What about the GI50 (UO-31 renal) of the same compound?
The GI50 was 1940 nM.

What about the TGI (UO-31 renal) of the same compound?
The TGI was 7810 nM.

Source: PubChem BioAssay (NCI)
